Where a SMILES comes first, the peptide text is derived from it.
The molecules below were run on E. coli MG1655.
Format: cell-based, Escherichia coli
With NCCO [2-amino ethanol] the “suitability as nitrogen source (growth, purple color)” value (“suitability as nitrogen source” below) was “not suitable”. With Nc1ncnc2c1ncn2[C@@H]1O[C@H](CO)[C@@H](O)[C@H]1O [Adenosine] the “suitability as nitrogen source” value was “not suitable”. With C[C@@H](N)C(=O)O [D-alanine] the “suitability as nitrogen source” value was “positive”. In the case of N[C@H](CC(=O)O)C(=O)O [D-aspartic acid], the “suitability as nitrogen source” value is reported as “not suitable”. With N[C@H](CO)C(=O)O [D-serine] the “suitability as nitrogen source” value was “not suitable”. With NC(=O)[C@@H](O)[C@@H](O)[C@H](O)[C@@H](O)C=O [Glucuronamide] the “suitability as nitrogen source” value was “not suitable”. With NCC(=O)N[C@@H](CCC(=O)O)C(=O)O [Glycyl-L-glutamic acid] (H-Gly-Glu-OH) the “suitability as nitrogen source” value was “positive”. In the case of C[C@H](N)C(=O)N[C@@H](Cc1cnc[nH]1)C(=O)O [ala-his] (H-Ala-His-OH), the “suitability as nitrogen source” value is reported as “not suitable”. In the case of C[C@H](N)C(=O)N[C@H](C(=O)O)[C@@H](C)O [ala-thr] (H-Ala-Thr-OH), the “suitability as nitrogen source” value is reported as “positive”. With O=C1NC(=O)C(=O)C(=O)N1 [alloxan] the “suitability as nitrogen source” value was “not suitable”. With CCN [ethylamine] the “suitability as nitrogen source” value was “not suitable”. For NCCN [ethylenediamine], the “suitability as nitrogen source” value was “not suitable”. NC=O [formamide] was tested, and the “suitability as nitrogen source” value was “not suitable”. For C[C@H](NC(=O)CN)C(=O)O [gly-ala] (H-Gly-Ala-OH), the “suitability as nitrogen source” value was “positive”. With NCC(=O)N[C@@H](CC(N)=O)C(=O)O [gly-asn] (H-Gly-Asn-OH) the “suitability as nitrogen source” value was “positive”. In the case of NCC(=O)N[C@@H](CCC(N)=O)C(=O)O [gly-gln] (H-Gly-Gln-OH), the “suitability as nitrogen source” value is reported as “positive”. CSCC[C@H](NC(=O)CN)C(=O)O [gly-met] was tested, and the “suitability as nitrogen source” value was “positive”. With NCC(=O)O [glycine] the “suitability as nitrogen source” value was “positive”. With O=C(O)CNC(=O)c1ccccc1 [hippuric acid] the “suitability as nitrogen source” value was “not suitable”. In the case of NCCc1c[nH]cn1 [histamine], the “suitability as nitrogen source” value is reported as “not suitable”. For CC(O)C(N)=O (stereo not drawn) [lactamide], the “suitability as nitrogen source” value was “not suitable”. For CSCC[C@H](N)C(=O)N[C@@H](C)C(=O)O [met-ala] (H-Met-Ala-OH), the “suitability as nitrogen source” value was “not suitable”. For CCCCCN [n-amylamine], the “suitability as nitrogen source” value was “not suitable”. CCCCN [n-butylamine] was tested, and the “suitability as nitrogen source” value was “not suitable”. For O=[N+]([O-])[O-].[K+] [potassium nitrate], the “suitability as nitrogen source” value was “not suitable”. In the case of NCCCCN [putrescine], the “suitability as nitrogen source” value is reported as “not suitable”. In the case of O=NO [sodium nitrite], the “suitability as nitrogen source” value is reported as “not suitable”. In the case of Cc1c[nH]c(=O)[nH]c1=O [thymine], the “suitability as nitrogen source” value is reported as “not suitable”. In the case of NC(N)=O [urea], the “suitability as nitrogen source” value is reported as “not suitable”. For O=c1[nH]c(=O)c2[nH]c(=O)[nH]c2[nH]1 [uric acid], the “suitability as nitrogen source” value was “not suitable”. With O=C(O)/C=C/c1c[nH]cn1 [urocanic acid] the “suitability as nitrogen source” value was “not suitable”. In the case of O=c1[nH]c(=O)c2[nH]cnc2[nH]1 [xanthine], the “suitability as nitrogen source” value is reported as “not suitable”. With O=c1[nH]c(=O)c2ncn([C@@H]3O[C@H](CO)[C@@H](O)[C@H]3O)c2[nH]1 [xanthosine] the “suitability as nitrogen source” value was “not suitable”. NCCCCC(=O)O [δ-amino-n-valeric acid] was tested, and the “suitability as nitrogen source” value was “positive”. In the case of NCCCCCC(=O)O [ε-amino-n-caproic acid], the “suitability as nitrogen source” value is reported as “not suitable”.

These molecules were tested on ten strains of E. coli. Further: key: +: indicates that the organism tested was capable of utilizing the carbon source listed; −: indicates that the organism tested was not capable of utilizing the carbon source listed; indicates weak positive reactions.
Format: cell-based, Escherichia coli
In the case of NCCO [2-amino ethanol], the carbon source utilization is reported as “−”. With Nc1ncnc2c1ncn2[C@@H]1O[C@H](CO)[C@@H](O)[C@H]1O [Adenosine] the carbon source utilization was “+”. For C[C@@H](N)C(=O)O [D-alanine], the carbon source utilization was “+”. N[C@H](CC(=O)O)C(=O)O [D-aspartic acid] was tested, and the carbon source utilization was “−”. For N[C@H](CO)C(=O)O [D-serine], the carbon source utilization was “+ and −”. For NC(=O)[C@@H](O)[C@@H](O)[C@H](O)[C@@H](O)C=O [Glucuronamide], the carbon source utilization was “+”. For NCC(=O)N[C@@H](CCC(=O)O)C(=O)O [Glycyl-L-glutamic acid] (H-Gly-Glu-OH), the carbon source utilization was “+”.
